Literature values as cited in patent publication US9198974B2, “Decorated macromolecular scaffolds” (Mintaka Foundation for Medical Research, priority 2011, dated 2015).

Settings: meta-substituted aniline; listed as gives the substituent

Compound	pKa, m-
Nc1cccc(Br)c1 [m-Br—]	3.51
CCOC(=O)c1cccc(N)c1 [m-C2H5O2C—]	2.38
CCOc1cccc(N)c1 [m-C2H5O—]	4.17
Nc1cccc(-c2ccccc2)c1 [m-C6H5—]	4.18
COC(=O)c1cccc(N)c1 [m-CH3O2C—]	3.56
COc1cccc(N)c1 [m-CH3O—]	4.20
CSc1cccc(N)c1 [m-CH3S—]	4.40
Cc1cccc(N)c1 [m-CH3—]	4.67
Nc1cccc(Cl)c1 [m-Cl—]	3.32
Nc1cccc(C(F)(F)F)c1 [m-F3C—]	2.57
Nc1cccc(F)c1 [m-F—]	3.38
Nc1cccc(N)c1 [m-H2N—]	4.88
Nc1cccc(C(=O)O)c1 [m-HO2C—]	3.05
Nc1cccc(O)c1 [m-HO—]	4.17
Nc1cccc([N+](=O)[O-])c1 [m-O2N—]	2.45
Nc1cccc(S(=O)(=O)O)c1 [m-O3S—]	3.32

Same assay, conditions: ortho-substituted aniline; listed as gives the substituent

Compound	pKa, o-
CC(C)(C)c1ccccc1N [o-(CH3)3C—]	3.78
Nc1ccccc1Br [o-Br—]	2.6
CCOC(=O)c1ccccc1N [o-C2H5O2C—]	2.10
CCOc1ccccc1N [o-C2H5O—]	4.47
Nc1ccccc1-c1ccccc1 [o-C6H5—]	3.78
COC(=O)c1ccccc1N [o-CH3O2C—]	2.16
COc1ccccc1N [o-CH3O—]	4.49
CSc1ccccc1N [o-CH3S—]	4.05
Cc1ccccc1N [o-CH3—]	4.38
Nc1ccccc1Cl [o-Cl—]	2.62
Nc1ccccc1C(F)(F)F [o-F3C—]	3.49
Nc1ccccc1F [o-F—]	2.96
Nc1ccccc1N [o-H2N—]	4.47
Nc1ccccc1C(=O)O [o-HO2C—]	2.04
Nc1ccccc1O [o-HO—]	4.72
Nc1ccccc1[N+](=O)[O-] [o-O2N—]	−0.28
Nc1ccccc1S(=O)(=O)O [o-O3S—]	3.80

Same assay, conditions: preferred aniline catalysts

Compound	pKa
CCOc1ccc(N)cc1 [p-C2H5O—, 4-ethoxy aniline]	5.2
